Where two headings read alike, the source gives them in different places.
Legend:
ALPK1 [1] = molecular target: T1, ALPK1 (Homo sapiens, UniProt Q96QP1); assay: Enzymatic assay of ALPK1 activation; format: biochemical
T1 construct: endogenous in cells; host or cells: 293T cells

ALPK1 [2] = molecular target: T1, ALPK1; assay: NF-κB luciferase reporter assay in 293T cells (cellular assay); format: cell-based
Description: The compounds disclosed herein activate NF-κB through ALPK1-TIFA axis as determined by the NF-κB luciferase reporter and TIFA phosphorylation. For NF-κB luciferase assay, the plasmids (pNL2.2-BII-5RE-Luc), and control vector (pRL-TK) were transfected into 293T cells with the Jetprime reagents (Polyplus). NF-κB luciferase activity was determined using the dual luciferase assay kit (Promega) according to the manufacturer's instructions. TIFA phosphorylation upon the treatment with the compounds disclosed herein described in Table 1, were assayed with immunoblotting. Briefly, for the immunoblotting assay, the 293T cells were seeded in 12-well-plates and cultured for 16 h, and treated with indicated compounds for another 2 hours. Subsequently, the cells were collected and sampled as the regular western-blotting method, immunoblotted by the TIFA phosphorylation specific antibody (ab214815, Abcam).
The EC50 of the compounds disclosed herein were determined by the NF-κB luciferase reporter assay using 293T cells described supra. Compounds with indicated concentrations were added to the culture medium of 293T and the NF-κB luciferase activity was determined using the dual luciferase assay kit (Promega) according to the manufacturer's instructions. […] These chemical entities induce strong activation of the immune regulator NF-κB.

[3] = PK / tissue distribution in Sprague-Dawley rats; format: in vivo; settings: female, rat; for Cmax: PO, 5 mg/kg; for clearance: IV 1 mg/kg, read-out: CL post IV Dosing @1 mg/kg; for half-life: PO 5 mg/kg, read-out: T1/2 post PO Dosing @5 mg/kg (converted)
Description: Tissue distribution study of the compounds disclosed herein were conducted in SD rats and mice to assess their liver-targeting properties. The compounds disclosed herein were orally administered to SD rats and mice, and the concentration of the compound and its metabolites were tested in plasma and liver at different time points.
The pharmacokinetics of the compounds disclosed herein were evaluated in female Sprague-Dawley rats after administration via oral gavage and intravenous bolus (IV) injection. The test compound was dissolved in 0.5% methylcellulose for oral gavage and in 30% HP-β-CD for IV injection. The animals used for oral administration were fasted overnight prior to dosing and fed normal daily feed at 4 hours post-dose, but the animals used for IV dosing had free access to food during the study. Plasma samples were collected at pre-dose, 0.033 (IV only), 0.083, 0.25, 0.5, 1, 2, 4, 7 and 24 hours post-dose. Liver samples were collected at 1, 3 and 6 hours post-dose. The samples were analyzed by LC/MS/MS and the concentrations of test compound and its metabolites at each time point were determined. Pharmacokinetic parameters were calculated from the plasma concentrations using Pheonix WinNonlin.
Particularly, preferable compounds have a ratio for liver concentration to plasma concentration of greater than 2, more preferable compounds have a ratio for liver concentration to plasma concentration of greater than 5, and most preferable compounds have a ratio for liver concentration to plasma concentration of greater than 10. The PK properties and tissue exposure of representative compounds and control compound ADPS-Heptose in Rats are given below.

[4] = plasma, read-out: Cmax in Plasma

T1 sequence (Q96QP1 whole entry): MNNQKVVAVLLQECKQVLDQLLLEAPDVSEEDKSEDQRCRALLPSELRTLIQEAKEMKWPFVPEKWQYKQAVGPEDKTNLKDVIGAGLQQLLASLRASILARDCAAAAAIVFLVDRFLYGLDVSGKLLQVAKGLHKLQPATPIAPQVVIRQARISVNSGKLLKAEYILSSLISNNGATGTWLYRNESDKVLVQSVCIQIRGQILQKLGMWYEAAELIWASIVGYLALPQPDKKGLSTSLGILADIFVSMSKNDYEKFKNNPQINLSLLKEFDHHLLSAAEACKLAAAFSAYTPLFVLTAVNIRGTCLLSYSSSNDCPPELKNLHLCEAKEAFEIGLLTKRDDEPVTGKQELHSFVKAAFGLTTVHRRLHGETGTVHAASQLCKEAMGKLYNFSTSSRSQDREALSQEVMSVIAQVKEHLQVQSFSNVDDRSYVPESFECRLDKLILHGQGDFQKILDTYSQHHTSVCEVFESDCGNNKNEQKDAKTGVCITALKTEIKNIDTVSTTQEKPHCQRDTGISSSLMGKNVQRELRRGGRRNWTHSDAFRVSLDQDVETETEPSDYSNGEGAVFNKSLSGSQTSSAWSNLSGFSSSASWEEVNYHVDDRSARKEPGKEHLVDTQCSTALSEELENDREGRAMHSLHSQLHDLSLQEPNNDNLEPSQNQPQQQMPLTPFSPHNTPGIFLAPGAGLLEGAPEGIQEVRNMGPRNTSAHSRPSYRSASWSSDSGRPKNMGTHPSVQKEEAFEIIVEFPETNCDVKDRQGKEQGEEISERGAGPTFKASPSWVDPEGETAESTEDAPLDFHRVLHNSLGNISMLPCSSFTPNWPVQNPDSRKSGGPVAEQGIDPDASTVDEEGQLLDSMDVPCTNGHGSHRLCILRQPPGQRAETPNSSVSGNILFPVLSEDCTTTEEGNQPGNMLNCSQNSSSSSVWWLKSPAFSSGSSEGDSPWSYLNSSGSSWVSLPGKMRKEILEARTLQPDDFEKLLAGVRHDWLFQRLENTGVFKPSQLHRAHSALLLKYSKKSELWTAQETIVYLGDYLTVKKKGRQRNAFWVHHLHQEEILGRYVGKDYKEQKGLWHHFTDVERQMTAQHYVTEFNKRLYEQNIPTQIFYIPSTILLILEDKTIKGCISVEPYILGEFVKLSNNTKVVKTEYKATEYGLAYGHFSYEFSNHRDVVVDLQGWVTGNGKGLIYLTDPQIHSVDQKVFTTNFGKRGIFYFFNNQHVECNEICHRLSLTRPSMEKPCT

| EC50 (ALPK1 [1]) [nM] | EC50 (ALPK1 [2]) [nM] | Compound | Cmax ([3]; liver, read-out: Cmax in Liver) [ng/g] | Cmax [3, 4] [ng/mL] | clearance ([3]; plasma) [mL/min/kg] | half-life ([3]; plasma) [min] |
| --- | --- | --- | --- | --- | --- | --- |
|  | 7.57 | C=C[C@@]1(F)[C@H](O)[C@@H](COP(=O)(S)OP(=O)(O)OC2OC([C@H](COC(C)=O)OC(C)=O)C(OC(C)=O)C(OC(C)=O)C2OC(C)=O)O[C@H]1n1ccc(=O)[nH]c1=O (stereo partly drawn) [Example 42C] | 31.7 | 2.4 | 18.6 | 37.8 |
| 11 | 14 | C=C[C@@]1(F)[C@H](O)[C@@H](COP(=O)(S)OP(=O)(O)OC2OC([C@@H](O)CO)C(O)C(O)C2O)O[C@H]1n1ccc(=O)[nH]c1=O (stereo partly drawn) [Example 42D] |  |  |  |  |
|  | 20.7 | C=C[C@@]1(O)[C@H](O)[C@@H](COP(=O)(S)OP(=O)(O)OC2OC([C@H](COC(C)=O)OC(C)=O)C(OC(C)=O)C(OC(C)=O)C2OC(C)=O)O[C@H]1n1ccc(=O)[nH]c1=O (stereo partly drawn) [Example 43C] | 22.4 | < 1 | 8.25 | 140 |
| 64 | 5.66 | C#C[C@@]1(F)[C@H](O)[C@@H](COP(=O)(S)OP(=O)(O)OC2OC([C@@H](O)CO)C(O)C(O)C2O)O[C@H]1n1ccc(=O)[nH]c1=O (stereo partly drawn) [Example 22D] |  |  |  |  |
|  | 2.94 | C=C[C@@]1(O)[C@H](O)[C@@H](COP(=O)(S)OP(=O)(O)OC2OC([C@H](COC(C)=O)OC(C)=O)C(OC(C)=O)C(OC(C)=O)C2OC(C)=O)O[C@H]1c1cnc2c(N)ncnn12 (stereo partly drawn) [Example 127C] | 48.5 | 0.4 | 17.6 | 38.4 |
|  | 360 | CC(=O)OC[C@H](OC(C)=O)C1OC(OP(=O)(O)OP(=O)(S)OC[C@H]2O[C@@H](n3ccc(=O)[nH]c3=O)[C@](C)(N)[C@@H]2O)C(OC(C)=O)C(OC(C)=O)C1OC(C)=O (stereo partly drawn) [Example 112C] |  |  |  |  |
|  | 231 | C=C[C@@]1(O)[C@H](O)[C@@H](COP(=O)(S)OP(=O)(O)OC2OC([C@H](COC(C)=O)OC(C)=O)C(OC(C)=O)C(OC(C)=O)C2OC(C)=O)O[C@H]1c1csc(C(N)=O)c1N (stereo partly drawn) [Example 126C] |  |  |  |  |
|  | 2.99 | C=C[C@@]1(O)[C@H](O)[C@@H](COP(=O)(S)OP(=O)(O)OC2OC([C@H](COC(=O)C(C)C)OC(=O)C(C)C)C(OC(C)=O)C(OC(C)=O)C2OC(C)=O)O[C@H]1n1cnc2c(N)ncnc21 (stereo partly drawn) [Example 31M] |  |  |  |  |

The remaining lines, values behind:

| Compound | EC50 (ALPK1 [1]) [nM] | EC50 (ALPK1 [2]) [nM] | Cmax ([3]; liver, read-out: Cmax in Liver) [ng/g] | Cmax [3, 4] [ng/mL] | clearance ([3]; plasma) [mL/min/kg] | half-life ([3]; plasma) [min] |
| --- | --- | --- | --- | --- | --- | --- |
| C#C[C@@]1(F)[C@H](O)[C@@H](COP(=O)(S)OP(=O)(O)OC2OC([C@@H](O)CO)C(O)C(O)C2O)O[C@H]1n1cnc2c(N)ncnc21 (stereo partly drawn) [Example 21D] | 26 | 4.08 |  |  |  |  |
| C=C[C@@]1(O)[C@H](O)[C@@H](COP(=O)(S)OP(=O)(O)OC2OC([C@@H](O)CO)C(O)C(O)C2O)O[C@H]1n1ccc(=O)[nH]c1=O (stereo partly drawn) [Example 43D] | 48 | 18.3 |  |  |  |  |
| C#C[C@@]1(O)[C@H](O)[C@@H](COP(=O)(S)OP(=O)(O)OC2OC([C@@H](O)CO)C(O)C(O)C2O)O[C@H]1n1cnc2c(N)ncnc21 (stereo partly drawn) [Example 25D] | 17 | 8.41 |  |  |  |  |
| C=C[C@@]1(O)[C@H](O)[C@@H](CO[P@](=O)(S)OP(=O)(O)OC2OC([C@@H](O)CO)C(O)C(O)C2O)O[C@H]1n1cnc2c(N)ncnc21 (single isomer, unassigned) [Example 31Q] | 11 | 7.01 |  |  |  |  |
| C=C[C@@]1(F)[C@H](O)[C@@H](COP(=O)(S)OP(=O)(O)OC2OC([C@@H](O)CO)C(O)C(O)C2O)O[C@H]1n1cnc2c(N)ncnc21 (single isomer, unassigned) [Example 41D] | 4.1 | 5.71 |  |  |  |  |
| CC(=O)OC[C@H](OC(C)=O)C1OC(OP(=O)(O)OP(=O)(S)OC[C@H]2O[C@@H](n3cnc4c(N)ncnc43)[C@H](N(C)C)[C@@H]2O)C(OC(C)=O)C(OC(C)=O)C1OC(C)=O (stereo partly drawn) [Example 35C] |  | 18.9 | 1330 | 75.5 | 7.67 | 27 |
| C=C[C@@]1(O)[C@H](O)[C@@H](CO[P@@](=O)(S)OP(=O)(O)OC2OC([C@@H](O)CO)C(O)C(O)C2O)O[C@H]1n1cnc2c(N)ncnc21 (single isomer, unassigned) [Example 31R] | 12 | 13.6 |  |  |  |  |
| C=C[C@@]1(F)[C@H](O)[C@@H](COP(=O)(S)OP(=O)(O)OC2OC([C@H](COC(C)=O)OC(C)=O)C(OC(C)=O)C(OC(C)=O)C2OC(C)=O)O[C@H]1n1cnc2c(N)ncnc21 (stereo partly drawn) [Example 41C] |  | 8.31 | 18.7 | < 1 | 9.76 | 51 |
| C=C[C@@]1(O)[C@H](O)[C@@H](COP(=O)(S)OP(=O)(O)OC2OC([C@H](COC(C)=O)OC(C)=O)C(OC(C)=O)C(OC(C)=O)C2OC(C)=O)O[C@H]1n1cnc2c(N)ncnc21 (stereo partly drawn) [Example 31C] |  | 16.9 | 30.5 | < 1 | 14.6 | 104 |
| C=C[C@@]1(O)[C@H](O)[C@@H](COP(=O)(S)OP(=O)(O)OC2OC([C@@H](O)CO)C(O)C(O)C2O)O[C@H]1n1cnc2c(N)ncnc21 (stereo partly drawn) [Example 31D] | 24 | 16 |  |  |  |  |
| CN(C)[C@@H]1[C@H](O)[C@@H](CO[P@@](=O)(S)OP(=O)(O)OC2OC([C@@H](O)CO)C(O)C(O)C2O)O[C@H]1n1cnc2c(N)ncnc21 (single isomer, unassigned) [Example 35J] |  | 10.3 |  |  |  |  |
| CN(C)[C@@H]1[C@H](O)[C@@H](COP(=O)(S)OP(=O)(O)OC2OC([C@@H](O)CO)C(O)C(O)C2O)O[C@H]1n1ccc(=O)[nH]c1=O (stereo partly drawn) [Example 40D] |  | 713 |  |  |  |  |
| CN[C@@H]1[C@H](O)[C@@H](COP(=O)(S)OP(=O)(O)OC2OC([C@@H](O)CO)C(O)C(O)C2O)O[C@H]1n1cnc2c(N)ncnc21 (stereo partly drawn) [Example 34D] |  | 167 |  |  |  |  |

From patent US20250034197A1, “NUCLEOSIDE-DIPHOSPHATE-HEPTOSE COMPOUNDS FOR TREATING CONDITIONS ASSOCIATED WITH ALPK1 ACTIVITY” (PYROTECH (BEIJING) BIOTECHNOLOGY CO., LTD., priority 2021, published 2025)
